Article PMC4410478, “Larvicidal activity and possible mode of action of four flavonoids and two fatty acids identified in Millettia pinnata seed toward three mosquito species” (Parasites & Vectors, 2015)
Converted amounts (≈) assume the structure as drawn. Where two headings read alike, the source gives them in different places.

How the values were obtained:
[1] = test system: different mosquito species larvae; settings: cited from earlier work
[2] = test system: octopamine sensitive adenylate cyclase, whole body homogenate from third instar A. aegypti larvae; assay: Determination of cyclic AMP level (octopamine sensitive adenylate cyclase activity); format: biochemical, Aedes aegypti; settings: 100 μM test compound; octopamine 100 μM alone as comparator
Experimental: The in vitro octopamine sensitive adenylate cyclase activity was investigated according to the modified method of Pratt and Pryor [35]. The whole bodies of 75 third instar A. aegypti larvae (106.2 mg) were homogenized in 500 μL of 2 mM Tris-maleate buffer (pH 7.4) containing 0.8 mM ethylene glycol tetraacetic acid (EGTA). Adenylate cyclase activity was measured using a cAMP Biotrak Enzyme immunoassay system according to the manufacturer’s instructions. The assay was conducted in a total volume of 100 μL containing 80 mM Tris-maleate buffer, 5 mM theophylline (to inhibit phosphodiesterase activity), 2 mM MgSO4, 0.5 mM adenosine triphosphate (ATP), 0.2 mM EGTA, 50 μL of whole body homogenate (equivalent to 4.22 μg protein), and 1 μL of the test compounds in Tris-maleate buffer containing 0.2% ethanol. After incubation for 5 min at 20°C, the reaction was initiated by the addition of ATP. Incubation was carried out at 30°C for 3 min in a shaking water bath. The reaction was terminated by boiling for 2 min, and then the assay tube was cooled and centrifuged for 10 min at 8000 g. The 50 μL aliquots of the supernatant were assayed for cAMP level.
The polystyrene microplates (1 strip of 8 wells) coated with a goat anti-mouse polyclonal antibody were used. Fifty microliters of primary antibody (mouse monoclonal antibody) solution was added to each well except the blank wells (or the nonspecific binding (NSB) wells). The wells covered with the adhesive strip were incubated for 1 h at 25°C in a shaking incubator (480 rpm), followed by four times washing steps, each with 400 μL of wash buffer. The 50 μL of the test samples for cAMP determination and cAMP standard were added to wells. Control, blank (NSB), and zero standard wells were added with 50 μL of the diluent RD5-55 buffer. The 50 μL of cAMP conjugate (horseradish peroxidase-labeled cAMP) was then added to wells. The plate covered with a new adhesive strip was incubated for 2 h at 25°C on the shaker, followed by the four times washing steps. Then, 200 μL of substrate solution (equal volume of stabilized hydrogen peroxide and stabilized chromogen) was added to each well, and the test plate was incubated for 30 min at 25°C on the benchtop in darkness. Finally, the reaction was stopped by adding 100 μL of stop solution (2 N sulfuric acid) to each well. Optical densities at 450 and 540 nm were measured using the VersaMax microplate reader. The readings at 540 nm were subtracted from the readings at 450 nm. The cAMP concentrations were expressed as nmol/μg protein. Results were expressed as mean ± SE of duplicate samples of three independent experiments.

[3] = test system: third instar larvae from wild Aedes albopictus; assay: direct-contact mortality bioassay; settings: for LC50: Aedes albopictus, 24 h, read-out: LC50, mg/L (95% CL)
Experimental: (§1) A direct-contact mortality bioassay was used to evaluate the toxicity of all compounds to third instar larvae from the susceptible and wild mosquito populations. Each compound in acetone (for karanjin) or methanol (for the other compounds) was suspended in distilled water with Triton X-100 (20 μL/L). Groups of 20 mosquito larvae were separately put into paper cups (270 mL) containing each test compound solution (250 mL). The OPs temephos and fenthion served as positive controls and were similarly formulated. Negative controls consisted of the acetone– or methanol–Triton X-100 solution in distilled water. […] Treated and control (acetone– or methanol–Triton X-100 solution only) larvae were held under the same conditions as those used for colony maintenance. […] All treatments were replicated three times using 20 larvae per replicate.
(§2) In separate experiments, the efficacy of the 12 experimental liquid formulations was evaluated, as stated previously. Groups of 20 mosquito larvae were separately put into paper cups containing each test solution. Temephos 200 g/L EC served as a positive control. Negative controls consisted of the ethoxylated castor oil + polyoxyethylene dodecyl mono ether solution in distilled water or water. Mortalities were recorded, as stated previously. All treatments were replicated three times using 20 larvae per replicate.
(§3) Data were corrected for control mortality using Abbott’s formula [36]. The percentages of mortality were transformed to arcsine square-root values for analysis of variance (ANOVA). […] IC50 values and cAMP levels were subjected to ANOVA. The Bonferroni multiple-comparison method was used for comparison of means. Means ± SE of untransformed data are reported. Concentration–mortality data were subjected to probit analysis.

[4] = test system: third instar Culex pipiens pallens larvae; assay: direct-contact mortality bioassay; settings: for LC50: Culex pipiens, 24 h, read-out: LC50, mg/L (95% CL)
Experimental: as §1, §2, §3

[5] = test system: third instar Aedes aegypti larvae; assay: direct-contact mortality bioassay; settings: for LC50: Aedes aegypti, 24 h, read-out: LC50, mg/L (95% CL)
Experimental: as §1, §2, §3

[6] = target: AChE from A. aegypti larvae (Aedes aegypti, UniProt A4GND7); assay: Acetylcholinesterase assay (microplate); format: biochemical; settings: acetylthiocholine iodide hydrolysis at 30°C and pH 8.0
Experimental: Third instar larvae of A. aegypti was used in all experiments. […] After filtering through cheese cloth, the homogenate was centrifuged at 1000 g at 4°C for 5 min. The supernatant was used as the acetylcholinesterase (AChE) preparation. Protein content was determined by the Bradford dye method using BSA as the standard. Microplate AChE assay was carried out following the method of Hemingway et al. adapted from Ellman et al.. The reaction mixture consisted of 50 μL of the crude enzyme preparation, 150 μL of 0.1 M phosphate buffer, 20 μL of 3 mM DTNB in phosphate buffer (pH 7.0), and 1 μL of various concentrations of each test compound in ethanol. The reaction mixture was incubated at 30°C for 5 min and 20 μL of 32 mM ATChI was then added to the mixture. After incubation for 30 min, the reaction was stopped by adding 20 μL of 5 mM eserine salicylate. The absorbance was recorded at 412 nm using a VersaMax microplate reader (Molecular Devices, Sunnyvale, CA). Results were expressed as mean ± SE of triplicate samples of three independent experiments.
IC50 values and cAMP levels were subjected to ANOVA. […] Means ± SE of untransformed data are reported. Concentration–mortality data were subjected to probit analysis.

AChE from A. aegypti larvae, sequence (A4GND7 37-679): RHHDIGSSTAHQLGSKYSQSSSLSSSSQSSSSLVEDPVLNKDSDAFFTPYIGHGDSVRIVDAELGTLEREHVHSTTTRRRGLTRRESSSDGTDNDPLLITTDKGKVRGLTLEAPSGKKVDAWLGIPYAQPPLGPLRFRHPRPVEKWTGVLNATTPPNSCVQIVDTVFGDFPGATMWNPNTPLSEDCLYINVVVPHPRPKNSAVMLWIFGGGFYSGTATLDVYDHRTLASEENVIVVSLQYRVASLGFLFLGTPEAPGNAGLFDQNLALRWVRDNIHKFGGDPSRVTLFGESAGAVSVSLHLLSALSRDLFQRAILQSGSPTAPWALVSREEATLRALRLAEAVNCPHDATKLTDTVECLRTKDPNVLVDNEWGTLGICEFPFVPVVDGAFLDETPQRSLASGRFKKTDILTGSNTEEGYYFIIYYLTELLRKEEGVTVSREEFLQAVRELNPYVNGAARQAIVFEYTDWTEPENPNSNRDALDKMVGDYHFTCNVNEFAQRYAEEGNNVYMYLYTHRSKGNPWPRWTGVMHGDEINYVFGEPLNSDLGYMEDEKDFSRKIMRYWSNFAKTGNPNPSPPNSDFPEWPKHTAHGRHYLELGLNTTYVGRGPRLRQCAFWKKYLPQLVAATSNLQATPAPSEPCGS

Molecule	LC50 [3] [mg/L]	LC50 [4] [mg/L]	LC50 [5] [mg/L]	further results
CCCCOCc1ccc(O)cc1 [4-butoxymethylphenol]				LC50 ([1]; phenol): 0.05 µg/mL (≈ 0.277 µM)
CCCCCCCCCCCCCCCCCCCC(=O)O [Arachidic acid, arachidic acid]				cAMP level compared with that induced by octopamine [2]: significantly higher than that induced by octopamine
CCCCCCCCCCCCCCCCCCCCCC(=O)O [Behenic acid, behenic acid]	105 (≈ 309 µM)	68.8 (≈ 202 µM)	86.8 (≈ 255 µM)	cAMP level compared with that induced by octopamine [2]: significantly higher than that induced by octopamine
CCCCCCCC/C=C/CCCCCCCC(=O)O [Elaidic acid, elaidic acid]	66.3 (≈ 235 µM)	28.2 (≈ 99.9 µM)	32.2 (≈ 114 µM)	cAMP level compared with that induced by octopamine [2]: significantly higher than that induced by octopamine
CCCCC/C=C\C/C=C\CCCCCCCC(=O)OCC [Ethyl linoleate, ethyl linoleate]	> 200	> 200	> 200	
CCCCCCCC/C=C\CCCCCCCC(=O)OCC [Ethyl oleate, ethyl oleate]	> 200	> 200	> 200	
COP(=S)(OC)Oc1ccc(SC)c(C)c1 [Fenthion, fenthion, reference compound]	0.033 (≈ 0.119 µM)	0.027 (≈ 0.097 µM)	0.022 (≈ 0.079 µM)	
COc1c(-c2ccccc2)oc2c3c(ccc2c1=O)OC(C)(C)C=C3 [Karanjachromene (2), karanjachromene]	53 (≈ 158 µM)	18.7 (≈ 56 µM)	20.6 (≈ 61.5 µM)	
COc1c(-c2ccccc2)oc2c(ccc3occc32)c1=O [Karanjin (1), karanjin]	35.3 (≈ 121 µM)	14.6 (≈ 50 µM)	16.1 (≈ 55.2 µM)	
CCCCC/C=C\C/C=C\CCCCCCCC(=O)O [Linoleic acid, linoleic acid]	68.9 (≈ 246 µM)	20.1 (≈ 71.8 µM)	21.3 (≈ 75.9 µM)	cAMP level compared with that induced by octopamine [2]: significantly higher than that induced by octopamine
CC/C=C\C/C=C\C/C=C\CCCCCCCC(=O)O [Linolenic acid, linolenic acid]	71.3 (≈ 256 µM)	21.3 (≈ 76.6 µM)	22.6 (≈ 81.1 µM)	cAMP level compared with that induced by octopamine [2]: significantly higher than that induced by octopamine
CCCCC/C=C\C/C=C\CCCCCCCC(=O)OC [Methyl linoleate, methyl linoleate]	> 200	> 200	> 200	
CCCCCCCC/C=C\CCCCCCCC(=O)OC [Methyl oleate, methyl oleate]	> 200	> 200	> 200	
CCCCCCCC/C=C\CCCCCCCC(=O)O [Oleic acid (3), oleic acid]	18.8 (≈ 66.5 µM)	18.1 (≈ 64 µM)	18.4 (≈ 65.3 µM)	cAMP level compared with that induced by octopamine [2]: significantly lower than that induced by octopamine
CCCCCCCCCCCCCCCC(=O)O [Palmitic acid (4), palmitic acid]	85.6 (≈ 334 µM)	34.5 (≈ 135 µM)	43 (≈ 168 µM)	AChE inhibition IC50 [6]: lowest of any of the compounds examined; cAMP level compared with that induced by octopamine [2]: significantly lower than that induced by octopamine
O=c1c2c(oc3c1ccc1occc13)COc1ccccc1-2 [Pongarotene (6), pongarotene]	65 (≈ 224 µM)	25.5 (≈ 87.9 µM)	37.6 (≈ 130 µM)	
CCCCCCCCCCCCCCCCCC(=O)O [Stearic acid, stearic acid]	> 200	> 200	> 200	
COP(=S)(OC)Oc1ccc(Sc2ccc(OP(=S)(OC)OC)cc2)cc1 [Temephos, temephos, reference compound]	0.01 (≈ 0.0214 µM)	0.013 (≈ 0.0279 µM)	0.015 (≈ 0.0322 µM)	

Molecule	LC50 [3] [mg/L]	LC50 [4] [mg/L]	LC50 [5] [mg/L]	further results
CC#CC#CC(=O)c1ccccc1 [capillin]				LC50 ([1]; polyacetylene): < 10 µg/mL
C/C=C/c1ccc2c(c1)[C@@H](C)[C@H](c1ccc(O)cc1)O2 [conocarpan]				LC50 ([1]; neolignans): < 10 µg/mL
N#C[C@@H](O[C@@H]1O[C@H](CO)[C@@H](O)[C@H](O)[C@H]1O)c1ccc(O)cc1 [dhurrin]				LC50 ([1]; cyanogenic glycoside): 1.12 µg/mL (≈ 3.6 µM)
CCOC(=O)/C=C/c1ccccc1 [ethyl cinnamate]				LC50 ([1]; phenylpropanoids): 12.3 µg/mL (≈ 69.8 µM)
CCOC(=O)C=Cc1ccc(OC)cc1 [ethyl p-methoxycinnamate]				LC50 ([1]; phenylpropanoids): 20.7 µg/mL (≈ 100 µM)
C/C=C/c1ccc2oc(-c3ccc(O)cc3)c(C)c2c1 [eupomatenoid-6]				LC50 ([1]; neolignans): < 10 µg/mL
C=C[C@@H](O)C#CC#C[C@@H](O)/C=C\CCCCCCC [falcarindiol]				LC50 ([1]; acetylenic alcohols): 6.51 µg/mL (≈ 25 µM)
C=C[C@H](O)C#CC#CC/C=C\CCCCCCC [falcarinol]				LC50 ([1]; acetylenic alcohols): 3.49 µg/mL (≈ 14.3 µM)
O=C1C=CC[C@H](/C=C/c2ccccc2)O1 [goniothalmin]				LC50 ([1]; lactone): 0.87 to 25.95 µg/mL
CC(C)=CCOc1c2occc2cc2ccc(=O)oc12 [imperatorin]				LC50 ([1]; coumarins): 2.88 µg/mL (≈ 10.7 µM)
C=C1CC[C@H]2C(C)(C)CCC[C@]2(C)[C@H]1C/C=C(/C=O)CC=O [labda-8(17)-diene-15,16-dial]				LC50 ([1]; terpenoid): < 10 µg/mL
COc1ccc2ccc(=O)oc2c1CC=C(C)C [osthole]				LC50 ([1]; coumarins): 3.14 µg/mL (≈ 12.9 µM)
COC1=C[C@@H](C)[C@@H]2C[C@H]3OC(=O)C[C@H]4C(C)=C(OC)C(=O)[C@H]([C@@]2(C)C1=O)[C@@]34C [quassin]				LC50 ([1]; terpenoid): 6.0 µg/mL (≈ 15.4 µM)
C/C=C/c1cc(OC)c(OC)cc1OC [α-asarone]				LC50 ([1]; phenylpropanoids): 26.99 µg/mL (≈ 130 µM)
eupomatenoid-5				LC50 ([1]; neolignans): < 10 µg/mL
piperonaline				LC50 ([1]; alkaloid): 0.21 to 0.25 µg/mL
pongamol [Pongamol (5)]				LC50, mg/L (95% CL) ([3]; compounds, third instar larvae from wild Aedes albopictus, 24 h exposure): 56.14 (49.50–64.69) mg/L; LC50, mg/L (95% CL) ([4]; compounds, third instar Culex pipiens pallens larvae, 24 h exposure): 23.95 (20.68–27.34) mg/L; LC50, mg/L (95% CL) ([5]; compounds, third instar Aedes aegypti larvae, 24 h exposure): 25.76 (22.44–29.35) mg/L
